Test results from US20120028837A1, “RAPID SCREEN FOR REPRODUCTIVE TOXICANTS” (PRESIDENT AND FELLOWS OF HARVARD COLLEGE, priority 2010, published 2012).

Test system: C. elegans germline
Experiment: Synaptonemal complex and chromatin integrity in transition zone and pachytene (HTP-3, SYP-1, HIM-8, DAPI)
Type: in vivo
Description: To examine meiotic chromosome synapsis in C. elegans following BPA exposure, assembly of the synaptonemal complex was examined by assessing the localization of the axial element protein HTP-3 (a paralogue of the axial component HIM-3 required for proper synapsis and pairing of homologous chromosomes) and the central region protein SYP-1 [45], as the nuclei enter meiosis. As nuclei exit mitosis and progress into meiosis in wild type germlines, HTP-3 and SYP-1 are assembled onto the chromatin as foci and short tracks which increase in length through the transition zone. By pachytene, the polymerization of the SC is completed and both proteins form fully elongated tracks spanning the entire length of the homologous chromosomes. Following exposure to BPA, the kinetics and extent of assembly of HTP-3 and SYP-1 onto the chromatin during transition zone were not affected when compared to control (n=10 gonads).
These abnormal nuclei were not simply apoptotic nuclei as they were not specifically found near the bend of the gonad, where germline nuclei were cleared by apoptosis but instead could be found throughout pachytene. As disruption of the integrity of the SC could lead to a separation of the homologous chromosomes, the localization of the X specific pairing center component HIM-8 was examined. In C. elegans, specific loci, termed pairing centers, on chromosomes allow for the physical interaction between homologous pairs. HIM-8 along with other pairing center components associate with the pairing centers and the nuclear envelope and mediate homologous pairing.

CC(C)(c1ccc(O)cc1)c1ccc(O)cc1 [BPA, Bisphenol A]
pachytene nuclei with DAPI stained bodies or fragments (BPA exposure): about 10%
kinetics and extent of assembly of HTP-3 and SYP-1 onto chromatin during transition zone (BPA exposure vs control): not affected
HIM-8 foci per nucleus throughout pachytene (BPA treated worms): 1 focus per nucleus
chromosome synapsis in pachytene nuclei (SYP-1 staining) (BPA treated worms): defects in chromosome synapsis
